Experimental data reported in ChEMBL document CHEMBL1201862, “PubChem BioAssay data set” (2004).
The source made the active and inactive calls.

Tests used:
[1] = NIH3T3 cell viability loss – ATP luminescence, mouse fibroblasts, counter-screen, dose response (AID 2010); format: functional, cell-based;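 note: cells exposed to compound for about 90 hours before reading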
[2] = target: Heat shock protein HSP 90-alpha (Homo sapiens, UniProt P07900); format: functional, organism-based
HEK293 = test: EBV LMP1 TES2 canonical NF-kB signalling blockers – cell-based, HEK293, luciferase, cherry-pick, dose response (AID 588343); format: functional; conditions: Homo sapiens
Protein RecA = target: T1, Protein RecA (Mycobacterium tuberculosis, UniProt P9WHJ3); test: Fluorescence Cell-Free Homogeneous Dose Retest to Identify Inhibitors of RecA-Intein Splicing Activity. [Related pubchem assays (depositor defined):AID2097, AID2223, AID489010, AID492950]; format: functional
T1 sequence (P9WHJ3 whole entry): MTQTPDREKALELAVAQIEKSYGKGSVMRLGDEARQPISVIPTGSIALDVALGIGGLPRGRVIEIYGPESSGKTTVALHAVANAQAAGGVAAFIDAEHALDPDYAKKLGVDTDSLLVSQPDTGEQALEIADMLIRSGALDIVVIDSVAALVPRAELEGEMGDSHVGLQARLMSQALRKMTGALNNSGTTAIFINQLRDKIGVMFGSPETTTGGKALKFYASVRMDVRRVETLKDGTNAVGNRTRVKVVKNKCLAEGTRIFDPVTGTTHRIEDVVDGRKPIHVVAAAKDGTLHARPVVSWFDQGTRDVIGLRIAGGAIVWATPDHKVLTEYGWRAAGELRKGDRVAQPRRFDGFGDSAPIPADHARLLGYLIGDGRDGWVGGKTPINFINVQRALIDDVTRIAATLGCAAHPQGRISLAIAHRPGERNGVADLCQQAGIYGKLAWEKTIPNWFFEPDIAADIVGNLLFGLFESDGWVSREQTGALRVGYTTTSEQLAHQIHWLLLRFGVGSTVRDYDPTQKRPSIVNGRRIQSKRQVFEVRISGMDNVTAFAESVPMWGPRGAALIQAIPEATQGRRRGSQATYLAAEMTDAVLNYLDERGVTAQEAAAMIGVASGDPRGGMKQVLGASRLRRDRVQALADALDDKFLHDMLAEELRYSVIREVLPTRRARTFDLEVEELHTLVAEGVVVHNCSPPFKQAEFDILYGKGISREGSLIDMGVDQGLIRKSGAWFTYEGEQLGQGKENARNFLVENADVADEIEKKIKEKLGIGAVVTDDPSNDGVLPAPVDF

Hexokinase HKDC1 = target: T2, Hexokinase HKDC1 (Homo sapiens, UniProt Q2TB90); test: inhibition of HKDC1 glucose phosphorylation – biochemical, W721R variant, dose response (AID 504729); format: functional
T2 sequence (Q2TB90 whole entry): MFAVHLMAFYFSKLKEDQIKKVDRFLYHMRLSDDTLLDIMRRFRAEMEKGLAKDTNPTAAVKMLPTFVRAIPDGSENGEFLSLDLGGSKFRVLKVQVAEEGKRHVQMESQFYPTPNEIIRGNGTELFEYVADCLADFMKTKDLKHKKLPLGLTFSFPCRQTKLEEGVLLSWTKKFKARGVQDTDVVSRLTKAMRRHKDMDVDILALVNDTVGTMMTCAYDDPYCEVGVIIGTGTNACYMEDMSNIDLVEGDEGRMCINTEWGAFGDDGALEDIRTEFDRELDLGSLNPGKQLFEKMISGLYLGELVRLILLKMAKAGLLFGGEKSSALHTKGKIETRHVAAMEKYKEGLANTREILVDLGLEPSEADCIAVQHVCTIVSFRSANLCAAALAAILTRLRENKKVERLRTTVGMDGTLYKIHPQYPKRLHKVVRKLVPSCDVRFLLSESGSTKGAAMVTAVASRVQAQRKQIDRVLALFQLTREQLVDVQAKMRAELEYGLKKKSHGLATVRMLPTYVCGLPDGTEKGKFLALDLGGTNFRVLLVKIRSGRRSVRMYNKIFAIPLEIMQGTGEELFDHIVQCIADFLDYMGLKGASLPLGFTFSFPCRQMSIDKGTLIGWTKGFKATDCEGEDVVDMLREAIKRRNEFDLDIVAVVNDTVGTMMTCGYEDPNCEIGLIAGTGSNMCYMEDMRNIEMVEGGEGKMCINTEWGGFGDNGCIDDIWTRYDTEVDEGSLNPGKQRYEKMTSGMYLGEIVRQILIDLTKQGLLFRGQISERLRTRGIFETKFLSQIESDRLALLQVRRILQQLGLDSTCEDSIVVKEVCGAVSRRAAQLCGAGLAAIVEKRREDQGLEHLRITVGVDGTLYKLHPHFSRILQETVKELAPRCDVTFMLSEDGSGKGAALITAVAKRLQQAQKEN

SMILES	EC50 [1]	AC50 [2]	AC50 (HEK293)	EC50 (Protein RecA)	IC50 (Hexokinase HKDC1)
CCCCC(=O)NC(c1ccco1)c1cc(Cl)c2cccnc2c1O (centres undefined)	3.65 µM (active)	4.37 µM (active)	–	–	–
CCCCC(=O)NC(c1ccc(Cl)cc1)c1ccc2cccnc2c1O (centres undefined)	0.617 µM (active)	15 µM (active)	4.59 µM (active)	–	–
COc1ccc2noc3c2c1C(=O)c1ccccc1-3	–	–	–	3.61 µM (active)	–
CCc1ccc2c(c1)C(NC(C)=O)C(=O)N2CCN1CCOCC1 (centres undefined)	–	–	–	16.8 µM (active)	6.27 µM (active)
O=C(N/N=C/c1ccccc1O)/C(O)=C\C1=NC2(CCCC2)Cc2ccccc21	–	–	33.4 µM (active)	–	–
